From patent publication US7267990B2, “Chelation of charged and uncharged molecules with porphyrin-based compounds” (priority 2002, dated 2007)

Tests used:
[1] = system: healthy female Balb/c mice; settings: mouse, in vivo
Source text: So far we have determined maximum tolerated doses for compounds 4, 6, 16, 31, and 33 using healthy female Balb/c mice.

[2] = system: V79 hamster fibroblast cells; assay: Clonogenic cytotoxicity assay in V79 cells; type: cell-based; settings: concentrations up to 200 μM
Procedure: Human glioblastoma U373 MG, hamster V79 fibroblast, and mouse melanoma B16 cells were obtained from the American Type Culture Collection. Rat gliosarcoma cells were kindly provided by the University of California at San Francisco Brain Tumor Research Group. All cells were maintained in log phase monolayer cultures with RPMI 1640 supplemented with 10% fetal bovine serum and 2 mM glutamine. We have also determined the cytotoxicity of porphyrins 4, 16, 18, and 31 in V79 hamster fibroblast cells using a clonogenic assay. For each of these porphyrins, we found CS50>300 μM, and we observed no toxicity (i.e., no effect on colony survival) at concentrations up to 200 μM.

[3] = system: rat 9 L gliosarcoma cells; assay: Dark cytotoxicity assay, 9L cells; type: cell-based; settings: 24 hour exposure, concentrations up to 250 μM, read-out: IC50 (dark toxicity, inhibition of proliferation)
Procedure: (§1) Human glioblastoma U373 MG, hamster V79 fibroblast, and mouse melanoma B16 cells were obtained from the American Type Culture Collection. Rat gliosarcoma cells were kindly provided by the University of California at San Francisco Brain Tumor Research Group. All cells were maintained in log phase monolayer cultures with RPMI 1640 supplemented with 10% fetal bovine serum and 2 mM glutamine.
(§2) Cells were seeded in 96-well culture plates, and were allowed to settle and attach for 24-48 hours. Triplicate wells were then exposed to twofold serial dilutions of test compounds at concentrations up to 250 μM. Compounds 4, 6, 10, and 12 in crystalline form were carefully weighed and dissolved in 100% DMSO to prepare stock solutions. Subsequent dilutions were performed directly in the culture medium just before the medium was administered to cells. After short-term (2 hour) or long-term (24 hour) exposure, cells were washed, and the wells were refilled with fresh culture medium. For dark toxicity trials, cells were allowed to proliferate for an additional 48-72 hours. For phototoxicity trials, washed cells were irradiated for 10 minutes with broad spectrum (600-700 nm) red light, and were then returned to an incubator for 48-72 hours.

[4] = system: human U-373MG glioblastoma cells; assay: Dark cytotoxicity assay, U-373 MG cells; type: cell-based; settings: 24 hour exposure, concentrations up to 250 μM, read-out: IC50 (dark toxicity, inhibition of proliferation)
Procedure: as §1, §2

Substance | maximum tolerated dose [1] | toxicity (effect on colony survival) [2] | IC50 [3] | IC50 [4]
meso-tetra[4-(nido-carboranyl)phenyl]porphyrin tetrapotassium salt [Compound 16] | exceeded 300 mg per kg of body weight | no toxicity |  | 
meso-tetra[3-(1-methyl-nido-carboranyl)methylphenyl]porphyrin tetrapotassium salt [Compound 10] |  |  | ~150 µM | ~150 µM
5,15-bis[bis-3,5-(1-methyl-o-carboranyl)methylphenyl]porphyrin [Compound 33] | exceeded 300 mg per kg of body weight |  |  | 
meso-tetra[4-(1-methyl-nido-carboranyl)methylphenyl]porphyrin tetrapotassium salt [Compound 4] | exceeded 300 mg per kg of body weight | no toxicity | ~150 µM | ~150 µM
Zn(II)-meso-tetra[4-(1-methyl-nido-carboranyl)methylphenyl]porphyrin tetrapotassium salt [Compound 6] | exceeded 300 mg per kg of body weight |  |  | 
Zn(II)-meso-tetra[4-(nido-carboranyl)phenyl]porphyrin tetrapotassium salt [Compound 18] |  | no toxicity |  | 
